Results: ChEMBL document CHEMBL2375215, “Phenylpropiophenone derivatives as potential anticancer agents: synthesis, biological evaluation and quantitative structure-activity relationship study” (Eur J Med Chem, 2013)

How the values were obtained:
[1] = Selectivity index, ratio of IC50 for PHA-stimulated human PBMC to IC50 for human LS174 cells
[2] = Selectivity index, ratio of IC50 for human PBMC to IC50 for human LS174 cells
PC-3 [3] = assay: Selectivity index, ratio of IC50 for human PBMC to IC50 for human PC3 cells
PC-3 [4] = assay: Selectivity index, ratio of IC50 for PHA-stimulated human PBMC to IC50 for human PC3 cells
MCF7 [5] = assay: Selectivity index, ratio of IC50 for PHA-stimulated human PBMC to IC50 for human MCF7 cells
MCF7 [6] = assay: Selectivity index, ratio of IC50 for human PBMC to IC50 for human MCF7 cells
K562 [7] = assay: Selectivity index, ratio of IC50 for PHA-stimulated human PBMC to IC50 for human K562 cells
K562 [8] = assay: Selectivity index, ratio of IC50 for human PBMC to IC50 for human K562 cells
[9] = Selectivity index, ratio of IC50 for PHA-stimulated human PBMC to IC50 for human Fem-X cells; format: functional
[10] = Selectivity index, ratio of IC50 for human PBMC to IC50 for human Fem-X cells
HeLa [11] = assay: Selectivity index, ratio of IC50 for PHA-stimulated human PBMC to IC50 for human HeLa cells
HeLa [12] = assay: Selectivity index, ratio of IC50 for human PBMC to IC50 for human HeLa cells
PBMC [13] = assay: Cytotoxicity against human PBMC assessed as decrease in cell survival after 72 hrs by MTT assay; format: cell-based
PBMC [14] = assay: Cytotoxicity against PHA-stimulated human PBMC assessed as decrease in cell survival after 72 hrs by MTT assay; format: cell-based
[15] = (§1) Cytotoxicity against human LS174 cells assessed as decrease in cell survival after 72 hrs by MTT assay; format: functional, cell-based; details: LS174, 72 h
LS174 = assay: as §1; format: functional, cell-based
PC-3 [16] = assay: Cytotoxicity against human PC3 cells assessed as decrease in cell survival after 72 hrs by MTT assay; format: functional, cell-based; details: for IC50: PC-3, 72 h
MCF7 [17] = assay: Cytotoxicity against human MCF7 cells assessed as decrease in cell survival after 72 hrs by MTT assay; format: functional, cell-based; details: for IC50: MCF7, 72 h
K562 [18] = assay: Cytotoxicity against human K562 cells assessed as decrease in cell survival after 72 hrs by MTT assay; format: functional, cell-based; details: for IC50: K562, 72 h
[19] = (§2) Cytotoxicity against human Fem-X cells assessed as decrease in cell survival after 72 hrs by MTT assay; format: functional, cell-based
Fem-X = assay: as §2; format: functional, cell-based
HeLa [20] = assay: Cytotoxicity against human HeLa cells assessed as decrease in cell survival after 72 hrs by MTT assay; format: functional, cell-based

## CCCNCC(O)COc1ccccc1C(=O)CCc1ccc(C)cc1.Cl (racemic)
[1]
  Ratio IC50: 1.99
[2]
  Ratio IC50: 2.34
PC-3 [3]
  Ratio IC50: 1.97
PC-3 [4]
  Ratio IC50: 1.68
MCF7 [5]
  Ratio IC50: 1.31
MCF7 [6]
  Ratio IC50: 1.54
K562 [7]
  Ratio IC50: 2.82
K562 [8]
  Ratio IC50: 3.31
[9]
  Ratio IC50: 3.26
[10]
  Ratio IC50: 3.83
HeLa [11]
  Ratio IC50: 1.91
HeLa [12]
  Ratio IC50: 2.24
PBMC [13]
  IC50: 48.7 µM
PBMC [14]
  IC50: 41.4 µM
[15]; read-out: IC50
  IC50: 20.8 µM
[15]; read-out: pIC50 (converted)
  IC50: 20.8 µM
LS174
  Activity: Dose-dependent effect
PC-3 [16]
  Activity: Dose-dependent effect
PC-3 [16]; read-out: IC50
  IC50: 24.7 µM
PC-3 [16]; read-out: pIC50 (converted)
  IC50: 24.7 µM
MCF7 [17]
  Activity: Dose-dependent effect
MCF7 [17]; read-out: IC50
  IC50: 31.7 µM
MCF7 [17]; read-out: pIC50 (converted)
  IC50: 31.7 µM
K562 [18]
  Activity: Dose-dependent effect
K562 [18]; read-out: IC50
  IC50: 14.7 µM
K562 [18]; read-out: pIC50 (converted)
  IC50: 14.7 µM
[19]; read-out: IC50
  IC50: 12.7 µM
[19]; read-out: pIC50 (converted)
  IC50: 12.7 µM
Fem-X
  Activity: Dose-dependent effect
HeLa [20]
  Activity: Dose-dependent effect
HeLa [20]; read-out: IC50
  IC50: 21.7 µM
HeLa [20]; read-out: pIC50 (converted)
  IC50: 21.7 µM

## O=C(/C=C/c1ccccc1C(F)(F)F)c1ccccc1O
[1]
  Ratio IC50: 1.32
[2]
  Ratio IC50: 1.59
PC-3 [3]
  Ratio IC50: 1.25
PC-3 [4]
  Ratio IC50: 1.04
MCF7 [5]
  Ratio IC50: 2.07
MCF7 [6]
  Ratio IC50: 2.48
K562 [7]
  Ratio IC50: 3.79
K562 [8]
  Ratio IC50: 4.55
[9]
  Ratio IC50: 3.42
[10]
  Ratio IC50: 4.1
HeLa [11]
  Ratio IC50: 1.92
HeLa [12]
  Ratio IC50: 2.31
PBMC [13]
  IC50: 41.9 µM
PBMC [14]
  IC50: 25.2 µM
[15]; read-out: IC50
  IC50: 26.4 µM
[15]; read-out: pIC50 (converted)
  IC50: 26.4 µM
LS174
  Activity: Dose-dependent effect
PC-3 [16]
  Activity: Dose-dependent effect
PC-3 [16]; read-out: IC50
  IC50: 33.5 µM
PC-3 [16]; read-out: pIC50 (converted)
  IC50: 33.5 µM
MCF7 [17]
  Activity: Dose-dependent effect
MCF7 [17]; read-out: IC50
  IC50: 16.9 µM
MCF7 [17]; read-out: pIC50 (converted)
  IC50: 16.9 µM
K562 [18]
  Activity: Dose-dependent effect
K562 [18]; read-out: IC50
  IC50: 9.2 µM
K562 [18]; read-out: pIC50 (converted)
  IC50: 9.2 µM
[19]; read-out: IC50
  IC50: 10.2 µM
[19]; read-out: pIC50 (converted)
  IC50: 10.2 µM
Fem-X
  Activity: Dose-dependent effect
HeLa [20]
  Activity: Dose-dependent effect
HeLa [20]; read-out: IC50
  IC50: 18.1 µM
HeLa [20]; read-out: pIC50 (converted)
  IC50: 18.1 µM

## CCCNCC(O)COc1ccccc1C(=O)CCc1ccccc1C.Cl (racemic)
[1]
  Ratio IC50: 2.45
[2]
  Ratio IC50: 2.58
PC-3 [3]
  Ratio IC50: 2.91
PC-3 [4]
  Ratio IC50: 2.77
MCF7 [5]
  Ratio IC50: 2.13
MCF7 [6]
  Ratio IC50: 2.24
K562 [7]
  Ratio IC50: 6.15
K562 [8]
  Ratio IC50: 6.47
[9]
  Ratio IC50: 7.32
[10]
  Ratio IC50: 7.71
HeLa [11]
  Ratio IC50: 5.6
HeLa [12]
  Ratio IC50: 5.89
PBMC [13]
  IC50: 52.4 µM
PBMC [14]
  IC50: 49.8 µM
[15]; read-out: IC50
  IC50: 20.3 µM
[15]; read-out: pIC50 (converted)
  IC50: 20.3 µM
LS174
  Activity: Dose-dependent effect
PC-3 [16]
  Activity: Dose-dependent effect
PC-3 [16]; read-out: IC50
  IC50: 18 µM
PC-3 [16]; read-out: pIC50 (converted)
  IC50: 18 µM
MCF7 [17]
  Activity: Dose-dependent effect
MCF7 [17]; read-out: IC50
  IC50: 23.4 µM
MCF7 [17]; read-out: pIC50 (converted)
  IC50: 23.4 µM
K562 [18]
  Activity: Dose-dependent effect
K562 [18]; read-out: IC50
  IC50: 8.1 µM
K562 [18]; read-out: pIC50 (converted)
  IC50: 8.1 µM
[19]; read-out: IC50
  IC50: 6.8 µM
[19]; read-out: pIC50 (converted)
  IC50: 6.8 µM
Fem-X
  Activity: Dose-dependent effect
HeLa [20]
  Activity: Dose-dependent effect
HeLa [20]; read-out: IC50
  IC50: 8.9 µM
HeLa [20]; read-out: pIC50 (converted)
  IC50: 8.9 µM

## CCCNCC(O)COc1ccccc1C(=O)CCc1ccccc1C(F)(F)F.Cl (racemic)
[1]
  Ratio IC50: 1.91
[2]
  Ratio IC50: 2.39
PC-3 [3]
  Ratio IC50: 1.91
PC-3 [4]
  Ratio IC50: 1.52
MCF7 [5]
  Ratio IC50: 3.66
MCF7 [6]
  Ratio IC50: 4.58
K562 [7]
  Ratio IC50: 4.03
K562 [8]
  Ratio IC50: 5.05
[9]
  Ratio IC50: 2.2
[10]
  Ratio IC50: 2.76
HeLa [11]
  Ratio IC50: 5.24
HeLa [12]
  Ratio IC50: 6.55
PBMC [13]
  IC50: 44.4 µM
PBMC [14]
  IC50: 35.5 µM
[15]; read-out: IC50
  IC50: 18.6 µM
[15]; read-out: pIC50 (converted)
  IC50: 18.6 µM
LS174
  Activity: Dose-dependent effect
PC-3 [16]
  Activity: Dose-dependent effect
PC-3 [16]; read-out: IC50
  IC50: 23.3 µM
PC-3 [16]; read-out: pIC50 (converted)
  IC50: 23.3 µM
MCF7 [17]
  Activity: Dose-dependent effect
MCF7 [17]; read-out: IC50
  IC50: 9.7 µM
MCF7 [17]; read-out: pIC50 (converted)
  IC50: 9.7 µM
K562 [18]
  Activity: Dose-dependent effect
K562 [18]; read-out: IC50
  IC50: 8.8 µM
K562 [18]; read-out: pIC50 (converted)
  IC50: 8.8 µM
[19]; read-out: IC50
  IC50: 16.1 µM
[19]; read-out: pIC50 (converted)
  IC50: 16.1 µM
Fem-X
  Activity: Dose-dependent effect
HeLa [20]
  Activity: Dose-dependent effect
HeLa [20]; read-out: IC50
  IC50: 6.78 µM
HeLa [20]; read-out: pIC50 (converted)
  IC50: 6.78 µM
